# Reference: patent US6590140B1, “Metal-regulated transporters and uses therefor” (Trustees of Dartmouth College, priority 1996, dated 2003)
# Target: T1, ZIP2 (Arabidopsis thaliana, UniProt Q9LTH9)
# T1 construct: expressed in transfected cells; host or cells: S. cerevisiae ZHY3 (zrt1::LEU2 zrt2::HIS3) with an Arabidopsis cDNA clone in pFL61
# T1 sequence (Q9LTH9 30-353): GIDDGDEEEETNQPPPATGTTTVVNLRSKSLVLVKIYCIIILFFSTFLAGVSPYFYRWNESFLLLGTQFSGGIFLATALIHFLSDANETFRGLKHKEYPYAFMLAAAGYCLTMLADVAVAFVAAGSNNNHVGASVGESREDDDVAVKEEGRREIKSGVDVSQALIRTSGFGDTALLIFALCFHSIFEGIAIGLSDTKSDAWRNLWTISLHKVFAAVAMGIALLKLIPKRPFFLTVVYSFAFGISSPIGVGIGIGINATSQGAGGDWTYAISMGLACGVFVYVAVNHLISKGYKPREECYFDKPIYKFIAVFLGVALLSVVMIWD
# Test: Zn uptake by ZHY3 containing ZIP2
# Assay type: cell-based
# Details: ZHY3 cells containing ZIP2, 5 minute time course using 10 mM Zn
# Protocol: Zinc uptake assays were performed as described previously for iron uptake (Eide et al. (1992) J. Biol. Chem. 267:20774-20781) except that ^65ZnCl2 (Amersham) and LZM-EDTA were substituted for ^59FeCI3 and LIM-EDTA, respectively. Cells were incubated for 5 minutes in LZM-EDTA plus the indicated concentration of ^65Zn, collected on glass fiber filters (Schleicher and Schuell), washed with 10 ml ice-cold SSW (1 mM EDTA, 20 mM trisodium citrate, 1 mM KH2PO4, 1 mM CaCl2, 5 mM MgSO4, 1 mM NaCl pH 4.2), and cell-associated radioactivity was measured by liquid scintillation counting. […] Michaelis-Menten kinetic values were determined using […] software (Intellikinetics, Princeton, N.J.). […] The statistical significance of the differences of values relative to controls was determined with one-way analysis of variance (ANOVA) followed by a Dunnett multiple comparison test. β-galactosidase activity was assayed in cells harvested at an OD600 of 0.5-2.0 as described by Guarente (Guarente, L. (1983) Methods Enzymol. 101:181-191) and activity is expressed as the change in absorbance at 420 nm×1000 divided by (min×ml of culture used×OD600 of the culture). Cell-associated zinc was measured in parallel cultures supplemented with tracer amounts of ^65Zn (10 μM) and nonradioactive zinc to the indicated final concentration. […]
smiles,measurement,value
[Zn+2] [zinc],Zn uptake,no Zn uptake
